Data on 20 compounds can be found in article PMC7692735, “Bromo-Cyclobutenaminones as New Covalent UDP-N-Acetylglucosamine Enolpyruvyl Transferase (MurA) Inhibitors” (Pharmaceuticals, 2020).

≈ marks a conversion by molar mass, not a printed value. Read-outs that look alike come from different tables or passages of the source. Some results are limits rather than exact numbers.

Data set [1] concerns the target T1, MurA (E. coli) (Escherichia coli, UniProt P0A749).
T1 construct: made in house; host or cells: E. coli
As to the kind of experiment: MurA assay, colorimetric malachite green method. Format: biochemical. Particulars: for IC50: read-out: IC50 (converted); for MurA inhibition in screening: 500 μM screening concentration. The procedure: MurAEC protein was recombinant, expressed in E. coli. The inhibition of MurA was monitored with the colorimetric malachite green method in which orthophosphate generated during the reaction is measured. MurA enzyme (E. coli) was pre-incubated with the substrate UNAG and compound for 30 min at 37 °C. The reaction was started by the addition of the second substrate PEP, resulting in a mixture with a final volume of 50 μL. The mixtures contained: 50 mM Hepes, pH 7.8, 0.005% Triton X-114, 200 μM UNAG, 100 μM PEP, purified MurA (diluted in 50 mM Hepes, pH 7.8) and 500 μM of each tested compound dissolved in DMSO. All compounds were soluble in the assay mixtures containing 5% DMSO (v/v). After incubation for 15 min at 37 °C, the enzyme reaction was terminated by adding Biomol® reagent (100μL) and the absorbance was measured at 650 nm after 5 min. All of the experiments were run in duplicate. Remaining activities (RAs) were calculated with respect to similar assays without the tested compounds and with 5% DMSO. The IC50 values, the concentration of the compound at which the remaining activity was 50%, were determined by measuring the remaining activities at seven different compound concentrations. The data are expressed as means of duplicate determinations, and the standard deviations were within 10% of the given values. A time-dependent inhibition assay was also performed. The IC50 values were determined at 0, 15 and 30 min of pre-incubation.

Data set [2] has as its target T1, MurA (E. coli). Particulars: known MurA inhibitors, Figure 1; cited from earlier work.
The test system of data set [3] is MurA Cys115. Kind of data set: MS/MS of tryptic digested MurA, covalent labelling. The data set is classed as binding, E. coli. Particulars: tryptic peptide amino acids 104–120. The procedure: The tryptic digestion method was adapted from our former publication.
Briefly, 50 μL of MurA (42 μM) and 10 μL 0.2% (w/v) RapiGest SF (Waters Corp., Milford, MA, USA) solution buffered with 50 mM ammonium bicarbonate (NH4HCO3) were mixed (pH = 7.8). 4.5 μL of 45 mM DTT (~200 nmol) in 100 mM NH4HCO3 was added and the mixture kept at 37.5 °C for 30 min. After cooling the sample to room temperature, 7.5 μL of 100 mM iodoacetamide (750 nmol) in 100 mM NH4HCO3 was added and the mixture placed in the dark at room temperature for 30 min. The reduced and alkylated protein was then digested by 10 μL (1 mg mL^−1) trypsin (the enzyme-to-protein ratio was 1:10) (Sigma, St Louis, MO, USA). The sample was incubated at 37 °C overnight. To degrade the surfactant, 7 μL of HCOOH (500 mM) solution was added to the digested […] sample to obtain the final 40 mM (pH ≈ 2) solution which was incubated at 37 °C for 45 min. For LC-MS analysis, the acid-treated sample was centrifuged for 5 min at 13,000 rpm.
A QTRAP 6500 triple quadruple—linear ion trap mass spectrometer, equipped with a Turbo V source in electrospray mode (AB Sciex Pte. Ltd., Framingham, MA, USA) and an Agilent 1100 Binary Pump HPLC system (Agilent Technologies, Waldbronn, Germany) equipped with an autosampler was used for LC-MS/MS analysis. […]

In data set [4] the test system is S. aureus (ATCC 29213). Kind of data set: Antimicrobial testing (MIC), broth microdilution. The data set is classed as cell-based. The settings on record: Staphylococcus aureus, ATCC29213, positive control. The protocol:
(§1) Antimicrobial testing was carried out by the broth microdilution method in 96-well plate format following the CLSI guidelines and European Committee for Antimicrobial Susceptibility Testing recommendations. Bacterial suspension of specific bacterial strain, equivalent to 0.5 McFarland turbidity standard, was diluted with cation-adjusted Mueller Hinton broth to obtain a final inoculum of 10^5 CFU/mL. Compounds dissolved in DMSO and inoculum were mixed together and incubated for 20–24 h at 37 °C. After incubation the minimal inhibitory concentration (MIC) values were determined by visual inspection as the lowest dilution of compounds showing no turbidity. The MICs were determined against S. aureus (ATCC 29213) and E. coli (ATCC 25922) bacterial strains. Tetracycline was used as a positive control on every assay plate, showing a MIC of 0.5 µg/mL and 1 µg/mL for S. aureus and E. coli, respectively.

The subject of data set [5] is E. coli (ATCC 25922). Kind of data set: Antimicrobial testing (MIC), broth microdilution. Particulars: Escherichia coli, ATCC25922, positive control. The data set is classed as cell-based. The protocol: as §1
Data set [6] relates to MurA (E. cloacae). On the set-up: method as in PMID 24755374, PMID 25521652, PMID 11600375, PMID 30461051. Particulars: known MurA inhibitors, Figure 1; cited from earlier work.
[7] abbreviates: fragment 500 μM, 30 min preincubation at 37 °C.
Setting [8] is: fragment 500 μM, 30 min preincubation at 37 °C, read-out: RA (remaining activity) at 500 µM.

T1 sequence (P0A749 whole entry): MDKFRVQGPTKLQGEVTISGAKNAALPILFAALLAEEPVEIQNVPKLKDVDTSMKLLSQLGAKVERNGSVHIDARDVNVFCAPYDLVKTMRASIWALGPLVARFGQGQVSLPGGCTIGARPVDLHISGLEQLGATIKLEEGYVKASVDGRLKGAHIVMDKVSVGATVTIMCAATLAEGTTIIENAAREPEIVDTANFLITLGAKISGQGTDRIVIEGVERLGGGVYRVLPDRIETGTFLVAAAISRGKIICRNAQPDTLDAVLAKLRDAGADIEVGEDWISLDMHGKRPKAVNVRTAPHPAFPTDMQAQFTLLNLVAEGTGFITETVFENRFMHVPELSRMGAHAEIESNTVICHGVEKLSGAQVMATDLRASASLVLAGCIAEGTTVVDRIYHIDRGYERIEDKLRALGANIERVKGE

Turning to “2-Bromo-4,4-dimethyl-3-(methylamino)cyclobut-2-en-1-one [15b]”, the “RA (remaining activity) at 500 µM” value in data set [1] (setting [7]) was found to be 91 ± 5%. On to `C=C1C(=O)OCC1O` (racemic) [(±)-tulipaline B], for which the IC50 in data set [2] was 2.2 µM. Turning to `CNC1=CC(=O)C1(C)C` [14a, 3-(Methylamino)-4,4-dimethylcyclobut-2-en-1-one], the remaining activity at 500 µM in data set [1] (setting [8]) is 93 ± 4%. Same read-out and setting: for `CN(C)C1=CC(=O)C1(C)C` [14b, 3-(Dimethylamino)-4,4-dimethylcyclobut-2-en-1-one] the value was 99 ± 1%; for `CCN(CC)C1=CC(=O)C1(C)C` [14c, 3-(Diethylamino)-4,4-dimethylcyclobut-2-en-1-one], 96 ± 2%; for `COc1ccc(CN(C)C2=CC(=O)C2(C)C)cc1` [14d, 3-((4-Methoxybenzyl)(methyl)amino)-4,4-dimethylcyclobut-2-en-1-one], 99 ± 3%.

Turning to `CN(CC(F)(F)F)C1=CC(=O)C1(C)C` [14e, 4,4-Dimethyl-3-(methyl(2,2,2-trifluoroethyl)amino)cyclobut-2-en-1-one], the remaining activity at 500 µM in data set [1] (setting [8]) was determined as 98 ± 7%. Consider `CNC1=C(Br)C(=O)C1(C)C` [15a, 2-Bromo-4,4-dimethyl-3-(methylamino)cyclobut-2-en-1-one], for which the remaining activity at 500 µM in data set [1] (setting [8]) came to 100 ± 7%. Turning to `CCN(CC)C1=C(Br)C(=O)C1(C)C` [15c, 2-Bromo-3-(diethylamino)-4,4-dimethylcyclobut-2-en-1-one], the remaining activity at 500 µM in data set [1] (setting [8]) came to 88 ± 6%. Regarding `COc1ccc(CN(C)C2=C(Br)C(=O)C2(C)C)cc1` [15d, 2-Bromo-3-((4-methoxybenzyl)(methyl)amino)-4,4-dimethylcyclobut-2-en-1-one], the IC50 in data set [1] (30 min preincubation) is 363 µM. The “RA (remaining activity) at 500 µM” value in data set [1] (setting [7]) stood at 13 ± 1%. The remaining activity at 500 µM in data set [1] (read-out: RA (remaining activity) at 500 µM, fragment 500 μM, 30 min preincubation at 37 °C) is less than 15%.

Take `CN(CC(F)(F)F)C1=C(Br)C(=O)C1(C)C` [15e, 2-Bromo-4,4-dimethyl-3-(methyl(2,2,2-trifluoroethyl)amino)cyclobut-2-en-1-one]: the “MurA inhibition in screening” value in data set [1] was “no effect”. The remaining activity at 500 µM in data set [1] (setting [8]) came to 84 ± 4%. For the compound `CN(C(=O)c1ccccc1)C1=CC(=O)C1(C)C` [16a, N-(4,4-dimethyl-3-oxocyclobut-1-en-1-yl)-N-methylbenzamide], the remaining activity at 500 µM in data set [1] (setting [8]) worked out at 99 ± 8%. As to `CC(=O)N(C)C1=C(Br)C(=O)C1(C)C` [17b, N-(2-bromo-4,4-dimethyl-3-oxocyclobut-1-en-1-yl)-N-methylacetamide], the “Covalent labelling site on MurA by MS/MS” value in data set [3] is “labeling on Cys115”. For the same compound, the concentration for half-maximal inhibition (IC50) is 356 ± 29 µM in data set [1] (0 min preincubation), 149 ± 15 µM in data set [1] (15 min preincubation) and 128 µM in data set [1] (30 min preincubation). Further, in data set [1] (setting [8]), the remaining activity at 500 µM amounted to 8 ± 2%. Regarding `CN(C)[C@@H]1C(O)=C(C(N)=O)C(=O)[C@@]2(O)C(O)=C3C(=O)c4c(O)cccc4[C@@](C)(O)[C@H]3C[C@@H]12` [Tetracycline], the MIC in data set [4] is 0.5 µg/mL (≈ 1.13 µM); in data set [5], 1 µg/mL (≈ 2.25 µM).

As to `O=C1O/C(=C\c2cccc3ccccc23)C(O)=C1c1ccc(C(F)(F)F)cc1` [compound 5], in data set [2], the IC50 is 39 µM. Take `C=C(C(=O)O)[C@@H]1[C@@H](CCCCCCCC)OC(=O)[C@@H]1O` [compound 8]: the IC50 in data set [2] is 2.8 µM. As to `C=Cc1cncs1` [compound 9], the IC50 in data set [2] is 66 µM. Regarding `Ic1cncnc1` [compound 10], the IC50 in data set [2] is 3.8 µM.

Turning to `CCOC1=CC(=O)C1(C)C` [compound 12, 3-Ethoxy-4,4-dimethylcyclobut-2-en-1-one], the “MurA inhibition in screening” value in data set [1] was “to no avail”. The remaining activity at 500 µM in data set [1] (setting [8]) came to 98 ± 2%. Regarding `CC1=C(O)C(=O)[C@@H]2O[C@@H]2C1=O` [terreic acid], in data set [6], the IC50 is 14 µM.
